The results in this text go back to the supplement of paper PMC10307832.

Common to all, as to test: relative viability (nuclei count vs DMSO), 5 days (fraction); higher = more cells survive
Compound in the test “KIN001-266 + Phenformin”: CCN1CCC(CC1)N2C=C(N=N2)CNC3=CC4=C(C(=CN=C4C(=C3)Cl)C#N)NC5=CC(=C(C=C5)F)Cl [KIN001-266] + N=C(N)NC(=N)NCCc1ccccc1 [Phenformin] (partner 250 µM)
Summed up: (§1)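 Lung cancer cell lines in 1536-well plates got either a single drug or a fixed anchor-drug dose together with five library-drug doses (not always all listed) in √10 steps, by pin tool, on the day after seeding. Nuclei were counted after 5 days, and relative viability is the treated-to-vehicle ratio of nuclei counts. Values are medians of duplicate plates.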

Compound in the test “KIN001-266 + Palbociclib”: CCN1CCC(CC1)N2C=C(N=N2)CNC3=CC4=C(C(=CN=C4C(=C3)Cl)C#N)NC5=CC(=C(C=C5)F)Cl [KIN001-266] + CC(=O)c1c(C)c2cnc(Nc3ccc(N4CCNCC4)cn3)nc2n(C2CCCC2)c1=O [Palbociclib] (partner 0.5 µM)
Summed up: as §1

Compound in the test “KIN001-266 + Pictilisib”: CCN1CCC(CC1)N2C=C(N=N2)CNC3=CC4=C(C(=CN=C4C(=C3)Cl)C#N)NC5=CC(=C(C=C5)F)Cl [KIN001-266] + CS(=O)(=O)N1CCN(Cc2cc3nc(-c4cccc5[nH]ncc45)nc(N4CCOCC4)c3s2)CC1 [Pictilisib] (partner 1 µM)
Summed up:
as §1

Compound in the test “KIN001-266 + Decitabine”: CCN1CCC(CC1)N2C=C(N=N2)CNC3=CC4=C(C(=CN=C4C(=C3)Cl)C#N)NC5=CC(=C(C=C5)F)Cl [KIN001-266] + Nc1ncn([C@H]2C[C@H](O)[C@@H](CO)O2)c(=O)n1 [Decitabine] (partner 2 µM)
Summed up: as §1

With NCI-H2126, the relative viability was determined as 0.535 with KIN001-266 + Phenformin (first compound 0.08 µM); 0.519 in the test with KIN001-266 + Phenformin (first compound 0.253 µM); 0.546 with KIN001-266 + Phenformin (first compound 0.8 µM); 0.555 with KIN001-266 + Phenformin (first compound 2.53 µM); 0.5 in the test with KIN001-266 + Phenformin (first compound 8 µM); 0.324 with KIN001-266 + Palbociclib (first compound 0.08 µM). Besides, the relative viability with KIN001-266 + Palbociclib (first compound 0.253 µM) amounted to 0.366; in the test with KIN001-266 + Palbociclib (first compound 0.8 µM), 0.387; with KIN001-266 + Palbociclib (first compound 2.53 µM), 0.358; with KIN001-266 + Palbociclib (first compound 8 µM), 0.365; with KIN001-266 + Pictilisib (first compound 0.08 µM), 0.53; with KIN001-266 + Pictilisib (first compound 0.253 µM), 0.538. Further, the relative viability was found to be 0.449 with KIN001-266 + Pictilisib (first compound 0.8 µM); 0.434 with KIN001-266 + Pictilisib (first compound 2.53 µM); 0.5 in the test with KIN001-266 + Pictilisib (first compound 8 µM); 0.625 in the test with KIN001-266 + Decitabine (first compound 0.08 µM); 0.56 with KIN001-266 + Decitabine (first compound 0.253 µM); 0.647 with KIN001-266 + Decitabine (first compound 0.8 µM). The values for the relative viability with KIN001-266 + Decitabine (first compound 2.53 µM) and in the test with KIN001-266 + Decitabine (first compound 8 µM) were 0.572 and 0.552, respectively.

In the case of LXF-289, the relative viability in the test with KIN001-266 + Phenformin (first compound 0.08 µM) is 0.497; with KIN001-266 + Phenformin (first compound 0.253 µM) it was 0.522; in the test with KIN001-266 + Phenformin (first compound 0.8 µM), 0.497; in the test with KIN001-266 + Phenformin (first compound 2.53 µM), 0.534; in the test with KIN001-266 + Phenformin (first compound 8 µM) it was 0.54; with KIN001-266 + Palbociclib (first compound 0.08 µM), 0.589. Besides, the relative viability with KIN001-266 + Palbociclib (first compound 0.253 µM) came out at 0.618; in the test with KIN001-266 + Palbociclib (first compound 0.8 µM) it was 0.596; with KIN001-266 + Palbociclib (first compound 2.53 µM), 0.606; with KIN001-266 + Palbociclib (first compound 8 µM) it was 0.629; in the test with KIN001-266 + Pictilisib (first compound 0.08 µM), 0.791; with KIN001-266 + Pictilisib (first compound 0.253 µM), 0.786. Moreover, the relative viability came to 0.755 with KIN001-266 + Pictilisib (first compound 0.8 µM); 0.767 with KIN001-266 + Pictilisib (first compound 2.53 µM); 0.799 in the test with KIN001-266 + Pictilisib (first compound 8 µM); 0.379 with KIN001-266 + Decitabine (first compound 0.08 µM); 0.365 in the test with KIN001-266 + Decitabine (first compound 0.253 µM); 0.369 in the test with KIN001-266 + Decitabine (first compound 0.8 µM). Moreover, the relative viability stood at 0.34 with KIN001-266 + Decitabine (first compound 2.53 µM) and 0.414 with KIN001-266 + Decitabine (first compound 8 µM).

HCC-44: the relative viability in the test with KIN001-266 + Phenformin (first compound 0.08 µM) was found to be 0.229; with KIN001-266 + Phenformin (first compound 0.253 µM), 0.185; with KIN001-266 + Phenformin (first compound 0.8 µM) it was 0.197; with KIN001-266 + Phenformin (first compound 2.53 µM), 0.26; with KIN001-266 + Phenformin (first compound 8 µM), 0.3; with KIN001-266 + Palbociclib (first compound 0.08 µM), 1.06. The relative viability is 0.973 with KIN001-266 + Palbociclib (first compound 0.253 µM); 0.95 with KIN001-266 + Palbociclib (first compound 0.8 µM); 0.949 in the test with KIN001-266 + Palbociclib (first compound 2.53 µM); 1.03 with KIN001-266 + Palbociclib (first compound 8 µM); 0.657 with KIN001-266 + Pictilisib (first compound 0.08 µM); 1.76 in the test with KIN001-266 + Pictilisib (first compound 0.253 µM). For the same cell line, the relative viability in the test with KIN001-266 + Pictilisib (first compound 0.8 µM) came to 0.593; with KIN001-266 + Pictilisib (first compound 2.53 µM), 0.636; with KIN001-266 + Pictilisib (first compound 8 µM), 0.57; with KIN001-266 + Decitabine (first compound 0.08 µM), 0.977; in the test with KIN001-266 + Decitabine (first compound 0.253 µM), 0.964; in the test with KIN001-266 + Decitabine (first compound 0.8 µM), 1.01. The relative viability in the test with KIN001-266 + Decitabine (first compound 2.53 µM) was found to be 0.847; with KIN001-266 + Decitabine (first compound 8 µM), 0.99.

With PC-14, the relative viability in the test with KIN001-266 + Phenformin (first compound 0.08 µM) came out at 0.567; with KIN001-266 + Phenformin (first compound 0.253 µM), 0.762; with KIN001-266 + Phenformin (first compound 0.8 µM), 0.356; with KIN001-266 + Phenformin (first compound 2.53 µM) it was 0.543; with KIN001-266 + Phenformin (first compound 8 µM), 0.324; with KIN001-266 + Palbociclib (first compound 0.08 µM) it was 0.55. The relative viability with KIN001-266 + Palbociclib (first compound 0.253 µM) worked out at 0.518; with KIN001-266 + Palbociclib (first compound 0.8 µM) it was 0.594; with KIN001-266 + Palbociclib (first compound 2.53 µM) it was 0.509; with KIN001-266 + Palbociclib (first compound 8 µM), 0.0895; in the test with KIN001-266 + Pictilisib (first compound 0.08 µM), 0.702; in the test with KIN001-266 + Pictilisib (first compound 0.253 µM), 0.571. The relative viability came to 0.772 with KIN001-266 + Pictilisib (first compound 0.8 µM); 0.565 in the test with KIN001-266 + Pictilisib (first compound 2.53 µM); 0.0965 in the test with KIN001-266 + Pictilisib (first compound 8 µM); 0.214 with KIN001-266 + Decitabine (first compound 0.08 µM); 0.253 with KIN001-266 + Decitabine (first compound 0.253 µM); 0.2 with KIN001-266 + Decitabine (first compound 0.8 µM). Besides, the relative viability came out at 0.265 with KIN001-266 + Decitabine (first compound 2.53 µM) and 0.229 in the test with KIN001-266 + Decitabine (first compound 8 µM).
